Patent US12486279B2, “Indole alkaloid with fungicidal effect” (priority 2020, dated 2025)
≈ marks a conversion by molar mass, not a printed value. Like-named read-outs stand apart in the source and are kept apart here.

How the values were obtained:
[1] = test system: Colletotrichum gloeosporioides; experiment: Minimum inhibitory concentration (MIC), triphenyl tetrazolium chloride reduction, Colletotrichum gloeosporioides; assay type: cell-based; conditions: for Growth of the fungus on plates: 7.81 to 250 mg/mL, analyst 1; for Growth of the fungus on plates / Absorbance compared with the control: both days; for MIC: Colletotrichum gloeosporioides; for Absorbance compared with the control: all 8 concentrations
Experimental: First, its effect on the growth of samples of Colletotrichum gloeosporioides was assessed. The weighting of the activity was established in a spectrophotometric model through the reduction of Triphenyl Tetrazolium Chloride as a measure of […] metabolism (oxide reduction system). The C. gloeosporioides samples were incubated for 24 h at 37° C. in the presence of increasing amounts of Andranone and the control agents Chlorothalonil and Mancozeb. After the indicated time, the amount of formazan produced was assessed by colorimetry, which is indicative of the amount of viable fungal cells after the treatments.

[2] = acidic or neutral conditions; cited from earlier work
Daphnia magna = conditions: cited from earlier work
Fusarium oxysporum = experiment: Minimum inhibitory concentration (MIC), Fusarium oxysporum; assay type: cell-based; conditions: for Trend of absorbance with concentration: FIG. 6, 2 days; for Growth of the fungus on plates: 15.62-2000 mg/mL
various fish species = conditions: 48 to 96 h after exposure; cited from earlier work
small fish = conditions: cited from earlier work
agricultural workers = conditions: exposed agricultural workers (Dennis et al. 2010); cited from earlier work
[3] = test system: women exposed to Mancozeb; conditions: exposed women (Van Wendel de Joode et al. 2014); cited from earlier work
[4] = 6 technical replicates, 2 days, with standard deviation, 24 h at 37° C.

With `N#Cc1c(Cl)c(Cl)c(Cl)c(C#N)c1Cl` [Chlorothalonil, tetrachloro-isophthalonitrile] the “Growth of the fungus on plates” value [1] was “the fungus was not able to grow in any of the evaluated concentrations”, the MIC ([1]; 6 technical replicates, 2 days, with standard deviation, 24 h at 37° C., read-out: Minimum inhibitory concentration (MIC), Average Analyst 1) was 7.8 mg/mL (≈ 29.3 mM) and the MIC ([1]; 6 technical replicates, 2 days, with standard deviation, 24 h at 37° C., read-out: Minimum inhibitory concentration (MIC), Average Analyst 2) was 23.4 ± 22.1 mg/mL (≈ 88 mM). The MIC ([1]; average of 2 analysts, with standard deviation, read-out: Minimum inhibitory concentration (MIC), Average) was 15.6 ± 11 mg/mL (≈ 58.7 mM), the “Absorbance compared with the control” value [1] was “lower absorbances than the control in the 8 concentrations” and the Stability to hydrolysis [2] was “stable to hydrolysis”. The “Concentration causing a delay in reproduction” value (Daphnia magna) was 32 ng/mL, the “Trend of absorbance with concentration” value (Fusarium oxysporum) was “trend similar to that of Mancozeb” and the MIC (Fusarium oxysporum; Fusarium oxysporum, average of a biological replica on 2 different days) was 1 mg/mL (≈ 3.76 mM). The “Absorbance (570 nm)” value (Fusarium oxysporum; at the concentration at which the MIC was established, average of 2 days) was 0.45 ± 0.04, the “Inhibition Type” value (Fusarium oxysporum; class from MIC) was “Moderate (a moderate inhibition occurs in compounds with a MIC between 0.6 to 1 mg/mL)” and the “Growth of the fungus on plates” value (Fusarium oxysporum; day 1) was “the fungus was not able to grow in the highest concentrations of this fungicide”. For the same compound, the “Growth of the fungus on plates” value (Fusarium oxysporum; day 2) was “a slight growth of the fungus was observed, mainly at concentrations of 125 to 2000 mg/mL”, the “Median lethal toxicity values (LC50)” value (various fish species) was “less than 20 μg/L” and the “Concentration decreasing eggs per spawning, hatchability of eggs and survival of the fry” value (small fish) was 6.5 ng/mL.
For Mancozeb, the “Minimum inhibitory concentration (MIC), Average Analyst 1” value [1, 4] was 7.8 ± 0.0 mg/mL, the “Minimum inhibitory concentration (MIC), Average Analyst 2” value [1, 4] was 15.6 ± 11.0 mg/mL and the “Growth of the fungus on plates” value [1] was “no growth of the fungus was observed in any of the concentrations evaluated”. For the same compound, the “Absorbance compared with the control” value [1] was “the absorbance is lower compared to the absorbance of the control”, the “Minimum inhibitory concentration (MIC), Average” value ([1]; average of 2 analysts, with standard deviation) was 11.7 ± 5.5 mg/mL and the “Risk of developing cutaneous melanoma” value (agricultural workers) was “significantly increases the risk of developing cutaneous melanoma”. For the same compound, the “Ethylene thiourea (ETU) in urine” value [3] was “elevated levels of ethylene thiourea in urine”, the “Trend of absorbance with concentration” value (Fusarium oxysporum) was “the absorbance increases as the concentration of this compound increase” and the “Growth of the fungus on plates” value (Fusarium oxysporum; both days, no change in salt color) was “a slight growth of the fungus was observed, mainly at concentrations of 250 to 2000 mg/mL”.
